Measurements: PubChem BioAssay (NCI)
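These data come from cells grown in 96-well plates and exposed to compound for 48 hours at five concentrations. TGI: total growth inhibition.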

Tests used:
Test in all cases: inhibition of tumour cell growth, NCI panel, 48 h
SK-OV-3 ovarian = test system: SK-OV-3 ovarian
SK-MEL-2 melanoma = test system: SK-MEL-2 melanoma
M14 melanoma = test system: M14 melanoma
SN12C renal = test system: SN12C renal
SW-620 colon = test system: SW-620 colon
UO-31 renal = test system: UO-31 renal
ACHN renal = test system: ACHN renal
UACC-257 melanoma = test system: UACC-257 melanoma
HT29 colon = test system: HT29 colon
HCT-116 colon = test system: HCT-116 colon
SF-268 CNS = test system: SF-268 CNS
SF-539 CNS = test system: SF-539 CNS
UACC-62 melanoma = test system: UACC-62 melanoma
A549 NSCLC = test system: A549 NSCLC
NCI-H23 lung = test system: NCI-H23 lung
OVCAR-8 ovarian = test system: OVCAR-8 ovarian
NCI-H522 lung = test system: NCI-H522 lung
HL-60(TB) leukemia = test system: HL-60(TB) leukemia
OVCAR-3 ovarian = test system: OVCAR-3 ovarian
LOX IMVI melanoma = test system: LOX IMVI melanoma
HCC-2998 colon = test system: HCC-2998 colon
786-0 renal = test system: 786-0 renal
COLO 205 colon = test system: COLO 205 colon
A498 renal = test system: A498 renal
NCI/ADR-RES ovarian = test system: NCI/ADR-RES ovarian
SNB-75 CNS = test system: SNB-75 CNS
T-47D breast = test system: T-47D breast
NCI-H226 lung = test system: NCI-H226 lung
OVCAR-4 ovarian = test system: OVCAR-4 ovarian
TK-10 renal = test system: TK-10 renal
HOP-92 NSCLC = test system: HOP-92 NSCLC
IGROV1 ovarian = test system: IGROV1 ovarian
RXF 393 renal = test system: RXF 393 renal
MDA-MB-435 = test system: MDA-MB-435
HCT-15 colon = test system: HCT-15 colon
MCF7 breast = test system: MCF7 breast
CAKI-1 renal = test system: CAKI-1 renal
SF-295 CNS = test system: SF-295 CNS
K-562 leukemia = test system: K-562 leukemia
BT-549 breast = test system: BT-549 breast
NCI-H460 lung = test system: NCI-H460 lung
HOP-62 NSCLC = test system: HOP-62 NSCLC
SK-MEL-28 melanoma = test system: SK-MEL-28 melanoma
EKVX NSCLC = test system: EKVX NSCLC
U251 CNS = test system: U251 CNS
PC-3 prostate = test system: PC-3 prostate
MDA-MB-231 breast = test system: MDA-MB-231 breast
OVCAR-5 ovarian = test system: OVCAR-5 ovarian
MOLT-4 leukemia = test system: MOLT-4 leukemia
DU-145 prostate = test system: DU-145 prostate
MALME-3M melanoma = test system: MALME-3M melanoma
MDA-N = test system: MDA-N
SK-MEL-5 melanoma = test system: SK-MEL-5 melanoma
SNB-19 CNS = test system: SNB-19 CNS
KM12 colon = test system: KM12 colon
SR leukemia = test system: SR leukemia
RPMI-8226 leukemia = test system: RPMI-8226 leukemia
CCRF-CEM leukemia = test system: CCRF-CEM leukemia

Q: CCOC(=O)CCC(NC(=O)c1ccc(NCc2ccc3nc(OC)c(OC)nc3c2)c2ccccc12)C(=O)OCC (stereo not given) was tested. Which TGI (SK-OV-3 ovarian) did it give?
A: > 100 µM

Q: And the TGI (SK-MEL-2 melanoma)?
A: > 100 µM

Q: What about the TGI (M14 melanoma) of the same compound?
A: > 100 µM

Q: And the TGI (SN12C renal)?
A: > 100 µM

Q: And the TGI (SW-620 colon)?
A: > 100 µM

Q: What about the TGI (UO-31 renal) of the same compound?
A: > 100 µM

Q: And the TGI (ACHN renal)?
A: > 100 µM

Q: What about the TGI (UACC-257 melanoma) of the same compound?
A: > 100 µM

Q: What about the TGI (HT29 colon) of the same compound?
A: > 100 µM

Q: What about the TGI (HCT-116 colon) of the same compound?
A: > 100 µM

Q: And the TGI (SF-268 CNS)?
A: > 100 µM

Q: And the TGI (SF-539 CNS)?
A: 56.5 µM

Q: And the TGI (UACC-62 melanoma)?
A: > 100 µM

Q: What about the TGI (A549 NSCLC) of the same compound?
A: > 100 µM

Q: And the TGI (NCI-H23 lung)?
A: > 100 µM

Q: And the TGI (OVCAR-8 ovarian)?
A: > 100 µM

Q: And the TGI (NCI-H522 lung)?
A: > 100 µM

Q: And the TGI (HL-60(TB) leukemia)?
A: > 100 µM

Q: What about the TGI (OVCAR-3 ovarian) of the same compound?
A: > 100 µM

Q: And the TGI (LOX IMVI melanoma)?
A: > 100 µM

Q: What about the TGI (HCC-2998 colon) of the same compound?
A: > 100 µM

Q: And the TGI (786-0 renal)?
A: > 100 µM

Q: And the TGI (COLO 205 colon)?
A: > 100 µM

Q: And the TGI (A498 renal)?
A: > 100 µM

Q: And the TGI (NCI/ADR-RES ovarian)?
A: > 100 µM

Q: And the TGI (SNB-75 CNS)?
A: > 100 µM

Q: What about the TGI (T-47D breast) of the same compound?
A: > 100 µM

Q: And the TGI (NCI-H226 lung)?
A: > 100 µM

Q: And the TGI (OVCAR-4 ovarian)?
A: > 100 µM

Q: And the TGI (TK-10 renal)?
A: > 100 µM

Q: And the TGI (HOP-92 NSCLC)?
A: 97.7 µM

Q: And the TGI (IGROV1 ovarian)?
A: > 100 µM

Q: And the TGI (RXF 393 renal)?
A: > 100 µM

Q: And the TGI (MDA-MB-435)?
A: > 100 µM

Q: What about the TGI (HCT-15 colon) of the same compound?
A: > 100 µM

Q: And the TGI (MCF7 breast)?
A: > 100 µM

Q: And the TGI (CAKI-1 renal)?
A: > 100 µM

Q: And the TGI (SF-295 CNS)?
A: > 100 µM

Q: What about the TGI (K-562 leukemia) of the same compound?
A: > 100 µM

Q: What about the TGI (BT-549 breast) of the same compound?
A: > 100 µM

Q: What about the TGI (NCI-H460 lung) of the same compound?
A: > 100 µM

Q: And the TGI (HOP-62 NSCLC)?
A: > 100 µM

Q: What about the TGI (SK-MEL-28 melanoma) of the same compound?
A: > 100 µM

Q: And the TGI (EKVX NSCLC)?
A: > 100 µM

Q: What about the TGI (U251 CNS) of the same compound?
A: > 100 µM

Q: And the TGI (PC-3 prostate)?
A: > 100 µM

Q: And the TGI (MDA-MB-231 breast)?
A: > 100 µM

Q: What about the TGI (OVCAR-5 ovarian) of the same compound?
A: > 100 µM

Q: And the TGI (MOLT-4 leukemia)?
A: > 100 µM

Q: And the TGI (DU-145 prostate)?
A: > 100 µM

Q: And the TGI (MALME-3M melanoma)?
A: > 100 µM

Q: What about the TGI (MDA-N) of the same compound?
A: > 100 µM

Q: And the TGI (SK-MEL-5 melanoma)?
A: > 100 µM

Q: What about the TGI (SNB-19 CNS) of the same compound?
A: > 100 µM

Q: What about the TGI (KM12 colon) of the same compound?
A: > 100 µM

Q: With O=C(CN1CCCC1)Nc1ccc2c(c1)C1Oc3ccccc3CC1CO2 (stereo not given) as the compound, how does the TGI (SR leukemia) read?
A: 89.6 µM

Q: And the TGI (SK-OV-3 ovarian)?
A: > 100 µM

Q: And the TGI (RPMI-8226 leukemia)?
A: 78.9 µM

Q: What about the TGI (SK-MEL-2 melanoma) of the same compound?
A: 50 µM

Q: What about the TGI (M14 melanoma) of the same compound?
A: 36.4 µM

Q: And the TGI (SN12C renal)?
A: > 100 µM

Q: What about the TGI (SW-620 colon) of the same compound?
A: 35.6 µM

Q: What about the TGI (UO-31 renal) of the same compound?
A: 84.4 µM

Q: What about the TGI (UACC-257 melanoma) of the same compound?
A: 44.3 µM

Q: And the TGI (HCT-116 colon)?
A: > 100 µM

Q: And the TGI (SF-268 CNS)?
A: > 100 µM

Q: And the TGI (SF-539 CNS)?
A: 39.5 µM

Q: And the TGI (UACC-62 melanoma)?
A: 33 µM

Q: What about the TGI (A549 NSCLC) of the same compound?
A: > 100 µM

Q: What about the TGI (NCI-H23 lung) of the same compound?
A: > 100 µM

Q: What about the TGI (OVCAR-8 ovarian) of the same compound?
A: > 100 µM

Q: What about the TGI (NCI-H522 lung) of the same compound?
A: 96.5 µM

Q: What about the TGI (HL-60(TB) leukemia) of the same compound?
A: > 100 µM

Q: And the TGI (OVCAR-3 ovarian)?
A: > 100 µM

Q: And the TGI (LOX IMVI melanoma)?
A: 44.5 µM

Q: What about the TGI (HCC-2998 colon) of the same compound?
A: 34.9 µM

Q: What about the TGI (786-0 renal) of the same compound?
A: 57.1 µM

Q: What about the TGI (COLO 205 colon) of the same compound?
A: 27.8 µM

Q: What about the TGI (A498 renal) of the same compound?
A: > 100 µM

Q: What about the TGI (NCI/ADR-RES ovarian) of the same compound?
A: > 100 µM

Q: What about the TGI (T-47D breast) of the same compound?
A: > 100 µM

Q: And the TGI (NCI-H226 lung)?
A: > 100 µM

Q: What about the TGI (TK-10 renal) of the same compound?
A: > 100 µM

Q: What about the TGI (HOP-92 NSCLC) of the same compound?
A: > 100 µM

Q: And the TGI (IGROV1 ovarian)?
A: > 100 µM

Q: What about the TGI (MDA-MB-435) of the same compound?
A: 55.4 µM

Q: And the TGI (HCT-15 colon)?
A: 47.2 µM

Q: And the TGI (MCF7 breast)?
A: 32.4 µM

Q: What about the TGI (CAKI-1 renal) of the same compound?
A: > 100 µM

Q: And the TGI (SF-295 CNS)?
A: 39.7 µM

Q: What about the TGI (K-562 leukemia) of the same compound?
A: > 100 µM

Q: What about the TGI (BT-549 breast) of the same compound?
A: 75.4 µM

Q: And the TGI (HOP-62 NSCLC)?
A: 45.5 µM

Q: And the TGI (EKVX NSCLC)?
A: > 100 µM

Q: And the TGI (U251 CNS)?
A: 56.5 µM

Q: What about the TGI (CCRF-CEM leukemia) of the same compound?
A: > 100 µM

Q: What about the TGI (PC-3 prostate) of the same compound?
A: 68.3 µM

Q: And the TGI (MDA-MB-231 breast)?
A: 75.7 µM

Q: What about the TGI (OVCAR-5 ovarian) of the same compound?
A: 93.4 µM

Q: And the TGI (MOLT-4 leukemia)?
A: > 100 µM

Q: What about the TGI (DU-145 prostate) of the same compound?
A: > 100 µM

Q: What about the TGI (MALME-3M melanoma) of the same compound?
A: 33.4 µM

Q: And the TGI (MDA-N)?
A: 88.2 µM

Q: And the TGI (SK-MEL-5 melanoma)?
A: 28.2 µM

Q: What about the TGI (KM12 colon) of the same compound?
A: > 100 µM
